In brackets after ≈: the same amount, converted by molar mass.
Tested on: herpes simplex virus type 2 (HSV-2)
Test: In vitro HSV-2 bioassay: virucidal plaque assay (HEP-2 cells)
Assay type: cell-based, HSV-2 strain 333
Settings: for MIC: Human alphaherpesvirus 2, 0.5 h, Table 4 run, 30 min at 25° C., upper limit, dilutions to 1:12800, read-out: MIC (lowest concentration producing a 3-log reduction in virus titer); for virucidal activity against HSV-2 in words: in vitro bioassay
Procedure: Evidence of the efficacy of the virucides of the invention in vitro has been obtained from bioassay using HSV-2, using a standard assay procedure. Serial dilutions of the compounds were tested for their ability to prevent plaque formation by a stock virus suspension. Reduction of plaque titer by test compounds as compared to mock treated controls was indicative of virucidal activity. […] These represent the upper limit for the drug concentration, since dilutions were not carried beyond 1:6400 and in some cases 1:12800.
Cell Culture. Cell cultures used for the propagation and titration of HSV-2 were the human diploid lung embryonic line MRC-5 and the human malignant epitheloid cell line HEP-2 respectively. Stock monolayer cultures of both cell lines were propagated in Dulbecco's Modified Eagle's medium (DME) supplemented with 10% (V/V) calf serum. Spinner cultures for mass production of HEP-2 cells were grown in Joklik's medium supplemented with 10% (V/V) calf serum and 1% (W/V) pluronic acid. Monolayer cultures of HEP-2 cells for plaque or virucidal assay were seeded into 60 mm dishes in DME supplemented with 10% calf serum and antibiotics. Stock cultures were maintained in antibiotic free medium.
Herpes simplex virus, type 2 (HSV-2) strain 333 was obtained from Dr. John Hughes of the Dept. of Medical Microbiology, College of Medicine, The Ohio State University. Stocks of HSV-2 were prepared in the human diploid embryonic lung cell line, MRC-5. Confluent MRC-5 monolayer cultures in T-75 plastic flasks were washed one time with Hank's and Balanced Salt solution (HBSS) and infected with 0.5 ml of HSV-2, strain 333 stock. Virus was adsorbed for 1 hour at 37° C. Then the culture was refed with 15 ml of DME supplemented with 1% (V/V) calf serum. Virus was harvested 48 hours later when cytopathology was complete. Cultures were frozen and thawed rapidly three times to release cell associated virus, clarified by centrifugation at 10,000×g for 15 minutes at 4° C., aliquoted into 5 ml lots and frozen at -70° C. One lot was taken for virus titration.
HSV-2 was titrated by plaque assay in HEP-2 cells under a semi-solid methyl cellulose overlay. Tenfold serial dilutions of virus were prepared in HBSS and 0.3 ml aliquots of each dilution inoculated onto triplicate HEP-2 cell monolayers in 60 mm plastic petri dishes. Adsorption of virus was for 1 hour at 37° C. Plates were then overlayed with 5 ml of a 1:1 mixture of 2×DME supplemented with 2% (V/V) calf serum and 3% (W/V) methyl cellulose to give a final 1×DME supplemented with 1% calf serum and 1.5% methylcellulose. Infected plates were incubated at 37° C. in a humidified 10% CO2 atmosphere for 48 hours. Virus plaques were visualized by staining with crystal violet and counted under a dissecting microscope. Virus titers were calculated from the plaque numbers by averaging the plaque count and multiplying by 3.3 (0.3 ml plates).
The following procedure was employed to assay virucidal activity in various test samples. Compounds were received as a solution in DMSO and were serially diluted in HBSS as described for each experiment. For the test, 1 ml of each dilution was mixed with 1 ml of a stock virus suspension diluted to approximately 9×10^3 plaque forming units (P.F.U.)/ml. This test mixture was incubated at 25° C. for 30 minutes, then inoculated onto a cell culture (HEP-2) for plaque assay as described previously. Mock treated (virus plus HBSS) controls were included with each test. Any reduction of plaque titer by test compounds as compared to the mock treated control was indicative of virucidal activity.
Samples from RP-HPLC fractionation of the CLOH, produced according to Example 2, as well as purified samples of palmitic, myristic and oleic acids and Vitamin D2, were tested for HSV-2 bioactivity. […] Pure oleic acid was not active in this assay, nor were palmitic and myristic acids and Vitamin D2. […]

[1] = Table 3, dilution 1:10, control titer 4.5 × 10^3
[2] = Table 3, dilution 1:400, TNTC = too numerous to count
[3] = Table 3, dilution 1:800, TNTC = too numerous to count
[4] = Table 3, dilution 1:1600, TNTC = too numerous to count
[5] = Table 3, dilution 1:3200, TNTC = too numerous to count
[6] = Table 3, dilution 1:6400, TNTC = too numerous to count
[7] = Table 3, dilution 1:12800, TNTC = too numerous to count
[8] = Table 1, dilution 1:10, TNTC = too numerous to count
[9] = Table 1, dilution 1:100, TNTC = too numerous to count
[10] = Table 1, dilution 1:200, TNTC = too numerous to count
[11] = Table 1, dilution 1:400, TNTC = too numerous to count
[12] = Table 1, dilution 1:800, TNTC = too numerous to count
[13] = Table 1, dilution 1:1600, TNTC = too numerous to count
[14] = Table 1, dilution 1:3200, TNTC = too numerous to count
[15] = Table 1, dilution 1:6400, TNTC = too numerous to count

| Structure (SMILES) | plaque count (Table 3, dilution 1:10) | titer [1] | plaque count (Table 3, dilution 1:100) | titer (Table 3, dilution 1:100) | titer (Table 3, dilution 1:400) | plaque count [2] | titer (Table 3, dilution 1:800) | plaque count [3] | titer (Table 3, dilution 1:1600) | plaque count [4] | titer (Table 3, dilution 1:3200) | plaque count [5] | titer (Table 3, dilution 1:6400) | plaque count [6] | titer (Table 3, dilution 1:12800) | plaque count [7] | plaque count [8] | plaque count [9] | plaque count [10] | plaque count [11] | other results |
| --- | --- | --- | --- | --- | --- | --- | --- | --- | --- | --- | --- | --- | --- | --- | --- | --- | --- | --- | --- | --- | --- |
| CCC=CCC=CCC=CCC=CCC=CCC=CCCC(=O)OC [DHA--ME, docasahexaenoic acid, methyl ester] | 95 | 3.1 × 10^2 | 293 | 9.7 × 10^2 | TNTC | TNTC | TNTC | TNTC | TNTC | TNTC | TNTC | TNTC | TNTC | TNTC | TNTC | TNTC |  |  |  |  |  |
| CC/C=C\C/C=C\C/C=C\C/C=C\C/C=C\CCCC(=O)O [EPA, eicosapentaenoic acid] | 0 | 0 | 0.5 | 1.7 × 10^0 | 1.7 × 10^0 | 0.5 | 1.7 × 10^0 | 0.5 | 1.7 × 10^0 | 0.5 | 1.7 × 10^0 | 0.5 | 1.7 × 10^0 | 0.5 | 1.7 × 10^0 | 0.5 |  |  |  |  | MIC: 0.37 µg/mL (≈ 1.22 µM) |
| CCC=CCC=CCC=CCC=CCC=CCCCC(=O)OC [EPA--ME, eicosapentaenoic acid, methyl ester] | 0 | 0 | 2.5 | 8.3 × 10^0 | 2.5 × 10^1 | 7.5 | 4.5 × 10^1 | 13.5 | 6.4 × 10^1 | 19.5 | 1.4 × 10^2 | 42.5 | 1.2 × 10^2 | 36.5 | 2.2 × 10^2 | 66 |  |  |  |  | MIC: 540 µg/mL (≈ 1710 µM) |
| CCCCCCCCCCCCCC(=O)O [Myristic acid, reference compound] |  |  |  |  |  |  |  |  |  |  |  |  |  |  |  |  | TNTC | TNTC | TNTC | TNTC | plaque count [12]: TNTC; plaque count [13]: TNTC; plaque count [14]: TNTC; plaque count [15]: TNTC; virucidal activity against HSV-2 in words: not active |
| CCCCCCCCCCCCCCCC(=O)O [Palmitic acid, reference compound] |  |  |  |  |  |  |  |  |  |  |  |  |  |  |  |  | TNTC | TNTC | TNTC | TNTC | plaque count [12]: TNTC; plaque count [13]: TNTC; plaque count [14]: TNTC; plaque count [15]: TNTC; virucidal activity against HSV-2 in words: not active |
| C=C1CC[C@H](O)C/C1=C/C=C1\CCC[C@]2(C)[C@@H]([C@H](C)/C=C/[C@H](C)C(C)C)CC[C@@H]12 [Vitamin D2, reference compound] |  |  |  |  |  |  |  |  |  |  |  |  |  |  |  |  | TNTC | TNTC | TNTC | TNTC | plaque count [12]: TNTC; plaque count [13]: TNTC; plaque count [14]: TNTC; plaque count [15]: TNTC; virucidal activity against HSV-2 in words: not active |
